{
  "source": "patent US12678540B2",
  "about": "“Chimeric peptide-modified SIS membrane, preparation method therefor and application thereof” (Beijing Biosis Healing Biological Technology Co., Ltd., priority 2021, dated 2026)",
  "origin": "cited, not measured here",
  "tested_on": "fibroblasts, epithelial cells and endothelial cells",
  "data": [
    {"substance": "Hst1: member of the histatins (HSTs); sequence SHREFPFYGDYGS contains minimal elements to promote cell migration", "values": [
      {"measurement": "migration or adhesion of fibroblasts, epithelial cells and endothelial cells", "value": "promote the migration or adhesion"}
    ]}
  ]
}
